Test results as given in patent publication US20130245081A1, “Compositions and Methods for Treating Amyotrophic Lateral Sclerosis” (priority 2009, published 2013).
Several values for one entry are separate records, joined by “and”; a condition that tells them apart may be missing. Equal entries are not always repeated. Where two headings read alike, the source gives them in different places.

Test system: patients with ALS
[1] = 50 mg, through the end of the study
[2] = 300 mg, No Riluzole Use, through Week 28
[3] = 300 mg, Riluzole Use, through Week 28
[4] = 300 mg, any post-baseline visit
[5] = 300 mg, double-blind treatment period
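Also: adverse event data gathered at every clinic visit and phone contact, after first study drug dose, in a blinded trial, counts of affected subjects.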

CCCN[C@@H]1CCc2nc(N)sc2C1 [dexpramipexole, (6R)-2-amino-4,5,6,7-tetrahydro-6-(propylamino)benzothiazole]
≧1 serious treatment-related TEAE [1]: 1 (2%) N (%) | ≧1 severe TEAE [1]: 13 N (%) and 13 (27%) N (%) | ≧1 treatment-related TEAE [1]: 16 (33%) N (%) | subjects with increase from baseline in QTcF >30 msec (300 mg): 5 subjects | AE: Anxiety [2]: 1 (7%) N (%) | AE: Depression [2]: 1 (7%) N (%) | AE: Dysarthria [2]: 2 (13%) N (%) | AE: Dysphagia [2]: 2 (13%) N (%) | AE: Fall [2]: 4 (27%) N (%) | AE: Muscular weakness [2]: 3 (20%) N (%) | AE: Nausea [2]: 0 N (%) | AE: Oedema peripheral [2]: 0 N (%) | AE: Pharyngolaryngeal pain [2]: 1 (7%) N (%) | AE: Salivary hypersecretion [2]: 2 (13%) N (%) | AE: Sinusitis [2]: 0 N (%) | AE: Urinary tract infection [2]: 1 (7%) N (%) | AE: Anxiety [3]: 4 (14%) N (%) | AE: Depression [3]: 4 (14%) N (%) | AE: Dysarthria [3]: 3 (10%) N (%) | AE: Dysphagia [3]: 2 (7%) N (%) | AE: Fall [3]: 7 (24%) N (%) | AE: Headache [3]: 2 N (%) and 2 (7%) N (%) | AE: Muscular weakness [3]: 4 (14%) N (%) | AE: Oedema peripheral [3]: 1 (3%) N (%) | AE: Pharyngolaryngeal pain [3]: 2 (7%) N (%) | AE: Salivary hypersecretion [3]: 3 (10%) N (%) | AE: Urinary tract infection [3]: 3 (10%) N (%) | incidence of ECGs with QTcB increased >30 msec from baseline [4]: 30% | subjects with QTcF interval >450 msec [4]: 3 subjects | AEs related to ALS as assessed by the Investigator [5]: 80% | hemoglobin value in 1 subject (potentially clinically significant) [5]: 7.8 g/dL | subjects with prolonged QTcB [5]: 3 subjects | subjects with serum chemistry abnormalities of potential clinical significance [5]: 4 subjects | neutrophil count in 1 subject with neutropenia (300 mg, noted at baseline of the placebo washout period): 1180 µL⁻¹ | ALS-related TEAE: Affect liability (300 mg, through Week 28): 0 N (%) | ALS-related TEAE: Arthralgia (300 mg, through Week 28): 1 (2%) N (%) | ALS-related TEAE: Choking (300 mg, through Week 28): 0 N (%) | ALS-related TEAE: Constipation (300 mg, through Week 28): 4 (9%) N (%) | ALS-related TEAE: Contusion (300 mg, through Week 28): 1 (2%) N (%) | ALS-related TEAE: Dehydration (300 mg, through Week 28): 2 (5%) N (%) | ALS-related TEAE: Depression (300 mg, through Week 28): 1 (2%) N (%) | ALS-related TEAE: Disease progression (300 mg, through Week 28): 2 (5%) N (%) | ALS-related TEAE: Dysarthria (300 mg, through Week 28): 5 (11%) N (%) | ALS-related TEAE: Dysphagia (300 mg, through Week 28): 3 (7%) N (%) | ALS-related TEAE: Dysphasia (300 mg, through Week 28): 1 (2%) N (%) | ALS-related TEAE: Dyspnoea (300 mg, through Week 28): 5 (11%) N (%) | ALS-related TEAE: Dyspnoea exertional (300 mg, through Week 28): 2 (5%) N (%) | ALS-related TEAE: Fall (300 mg, through Week 28): 10 (23%) N (%) | ALS-related TEAE: Fatigue (300 mg, through Week 28): 2 (5%) N (%) | ALS-related TEAE: Gastrointestinal Disorders (300 mg, through Week 28): 11 (25%) N (%) | ALS-related TEAE: General Disorders and Administration Site Conditions (300 mg, through Week 28): 6 (14%) N (%) | ALS-related TEAE: Increased upper airway secretion (300 mg, through Week 28): 2 (5%) N (%) | ALS-related TEAE: Injury, Poisoning and Procedural Complications (300 mg, through Week 28): 10 (23%) N (%) | ALS-related TEAE: Investigations (300 mg, through Week 28): 5 (11%) N (%) | ALS-related TEAE: Metabolism and Nutrition Disorders (300 mg, through Week 28): 4 (9%) N (%) | ALS-related TEAE: Muscle contractions involuntary (300 mg, through Week 28): 2 (5%) N (%) | ALS-related TEAE: Muscle spasticity (300 mg, through Week 28): 1 (2%) N (%) | ALS-related TEAE: Muscle twitching (300 mg, through Week 28): 2 (5%) N (%) | ALS-related TEAE: Muscular weakness (300 mg, through Week 28): 7 (16%) N (%) | ALS-related TEAE: Musculoskeletal and Connective Tissue Disorders (300 mg, through Week 28): 14 (32%) N (%) | ALS-related TEAE: Musculoskeletal pain (300 mg, through Week 28): 3 (7%) N (%) | ALS-related TEAE: Myalgia (300 mg, through Week 28): 0 N (%) | ALS-related TEAE: Neck pain (300 mg, through Week 28): 1 (2%) N (%) | ALS-related TEAE: Nervous System Disorders (300 mg, through Week 28): 10 (23%) N (%) | ALS-related TEAE: Oedema peripheral (300 mg, through Week 28): 1 (2%) N (%) | ALS-related TEAE: Pain in extremity (300 mg, through Week 28): 0 N (%) | ALS-related TEAE: Psychiatric Disorders (300 mg, through Week 28): 1 (2%) N (%) | ALS-related TEAE: Respiratory failure (300 mg, through Week 28): 0 N (%) | ALS-related TEAE: Respiratory, Thoracic and Mediastinal Disorders (300 mg, through Week 28): 11 (25%) N (%) | ALS-related TEAE: Salivary hypersecretion (300 mg, through Week 28): 5 (11%) N (%) | ALS-related TEAE: Vital capacity decreased (300 mg, through Week 28): 1 (2%) N (%) | ALS-related TEAE: Weight decreased (300 mg, through Week 28): 2 (5%) N (%) | Number of TEAEs (300 mg, through Week 28): 303 | Number of serious TEAEs (300 mg, through Week 28): 9 | Number of serious treatment-related TEAE (300 mg, through Week 28): 1 | Number of severe TEAEs (300 mg, through Week 28): 12 | Number of treatment-related TEAEs (300 mg, through Week 28): 46 | Subjects with a TEAE with action taken of study drug discontinued (300 mg, through Week 28): 0 N (%) | TEAE: Anxiety (300 mg, through Week 28): 5 (11%) N (%) | TEAE: Arthralgia (300 mg, through Week 28): 3 (7%) N (%) | TEAE: Cardiac Disorders (300 mg, through Week 28): 8 (18%) N (%) | TEAE: Constipation (300 mg, through Week 28): 11 (25%) N (%)
